Results on 22 molecules are retold here after patent publication US9944646B2, “Bicyclic azaheterocyclobenzylamines as PI3K inhibitors” (Incyte Corporation, priority 2012, dated 2018).

For the assay, the target named is PI3Kδ (Homo sapiens (Human), UniProt O00329). Nature of the assay: PI3K Enzyme Assay (Example A2), [γ-33P]ATP filter plate. In kind it is biochemical. How it is done: Example A2: PI3K Enzyme Assay
Lipid kinase substrate, phosphoinositol-4,5-bisphosphate (PIP2), are purchased from Echelon Biosciences (Salt Lake City, Utah). PI3K isoforms α, β, δ and γ are purchased from Millipore (Bedford, Mass.). ATP, MgCl2, DTT, EDTA, MOPS and CHAPS are purchased from Sigma-Aldrich (St. Louis, Mo.).
The kinase reaction are conducted in clear-bottom 96-well plate from Thermo Fisher Scientific in a final volume of 24 μL. Inhibitors are first diluted serially in DMSO and added to the plate wells before the addition of other reaction components. The final concentration of DMSO in the assay is 0.5%. The PI3K assays are carried out at room temperature in 20 mM MOPS, pH 6.7, 10 mM MgCl2, 5 mM DTT and CHAPS 0.03%. The reaction mixture is prepared containing 50 µM PIP2, kinase and varying concentration of inhibitors. Reactions are initiated by the addition of ATP containing 2.2 μCi [γ-^33P]ATP to a final concentration of 1000 μM. The final concentration of PI3K isoforms α, β, δ and γ in the assay were 1.3, 9.4, 2.9 and 10.8 nM, respectively. Reactions are incubated for 180 minutes and terminated by the addition of 100 μL of 1 M potassium phosphate pH 8.0, 30 mM EDTA quench buffer. A 100 μL aliquot of the reaction solution are then transferred to 96-well Millipore MultiScreen IP […] PVDF filter plate (The filter plate is prewetted with 200 μL 100% ethanol, distilled water, and 1 M potassium phosphate pH 8.0, respectively). The filter plate is aspirated on a Millipore Manifold under vacuum and washed with 18×200 μL wash buffer containing 1 M potassium phosphate pH 8.0 and 1 mM ATP. After drying by aspiration and blotting, the plate is air dried in an incubator at 37° C. overnight. Packard TopCount adapter (Millipore) is then attached to the plate followed with addition of 120 μL Microscint 20 scintillation cocktail (Perkin Elmer) in each well. After the plate sealing, the radioactivity of the product is determined by scintillation counting on Topcount (Perkin-Elmer). IC50 determination is performed by fitting the curve of percent control activity versus the log of the inhibitor concentration using the GraphPad Prism 3.0 software.

Chain of PI3Kδ (O00329 whole entry, canonical isoform): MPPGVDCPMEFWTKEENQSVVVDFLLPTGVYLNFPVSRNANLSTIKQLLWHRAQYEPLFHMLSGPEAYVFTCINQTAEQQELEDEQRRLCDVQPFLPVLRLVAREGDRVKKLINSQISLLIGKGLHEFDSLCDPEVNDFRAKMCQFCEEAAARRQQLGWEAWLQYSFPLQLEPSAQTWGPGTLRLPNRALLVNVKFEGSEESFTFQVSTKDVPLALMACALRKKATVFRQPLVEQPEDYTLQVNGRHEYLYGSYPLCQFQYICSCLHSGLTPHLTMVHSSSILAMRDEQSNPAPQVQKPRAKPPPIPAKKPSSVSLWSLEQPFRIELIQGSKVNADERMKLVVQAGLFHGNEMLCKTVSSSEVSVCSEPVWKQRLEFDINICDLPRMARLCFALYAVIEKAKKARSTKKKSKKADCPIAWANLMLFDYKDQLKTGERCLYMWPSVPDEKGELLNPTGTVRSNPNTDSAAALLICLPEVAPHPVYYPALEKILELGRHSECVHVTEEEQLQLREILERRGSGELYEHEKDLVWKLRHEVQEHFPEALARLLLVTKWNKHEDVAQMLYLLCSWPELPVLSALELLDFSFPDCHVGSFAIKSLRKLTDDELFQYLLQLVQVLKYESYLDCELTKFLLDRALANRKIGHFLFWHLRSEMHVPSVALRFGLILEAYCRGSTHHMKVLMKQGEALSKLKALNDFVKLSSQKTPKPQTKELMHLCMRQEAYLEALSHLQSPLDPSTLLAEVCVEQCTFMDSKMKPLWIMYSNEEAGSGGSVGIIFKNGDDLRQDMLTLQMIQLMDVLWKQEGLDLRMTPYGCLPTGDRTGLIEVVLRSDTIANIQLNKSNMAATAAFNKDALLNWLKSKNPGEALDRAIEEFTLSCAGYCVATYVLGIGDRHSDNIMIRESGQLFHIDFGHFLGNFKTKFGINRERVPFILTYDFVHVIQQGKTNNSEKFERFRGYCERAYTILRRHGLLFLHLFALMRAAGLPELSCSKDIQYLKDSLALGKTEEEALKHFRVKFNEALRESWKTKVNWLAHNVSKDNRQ
Chain of PI3Kδ (P27986 whole entry partner, canonical isoform): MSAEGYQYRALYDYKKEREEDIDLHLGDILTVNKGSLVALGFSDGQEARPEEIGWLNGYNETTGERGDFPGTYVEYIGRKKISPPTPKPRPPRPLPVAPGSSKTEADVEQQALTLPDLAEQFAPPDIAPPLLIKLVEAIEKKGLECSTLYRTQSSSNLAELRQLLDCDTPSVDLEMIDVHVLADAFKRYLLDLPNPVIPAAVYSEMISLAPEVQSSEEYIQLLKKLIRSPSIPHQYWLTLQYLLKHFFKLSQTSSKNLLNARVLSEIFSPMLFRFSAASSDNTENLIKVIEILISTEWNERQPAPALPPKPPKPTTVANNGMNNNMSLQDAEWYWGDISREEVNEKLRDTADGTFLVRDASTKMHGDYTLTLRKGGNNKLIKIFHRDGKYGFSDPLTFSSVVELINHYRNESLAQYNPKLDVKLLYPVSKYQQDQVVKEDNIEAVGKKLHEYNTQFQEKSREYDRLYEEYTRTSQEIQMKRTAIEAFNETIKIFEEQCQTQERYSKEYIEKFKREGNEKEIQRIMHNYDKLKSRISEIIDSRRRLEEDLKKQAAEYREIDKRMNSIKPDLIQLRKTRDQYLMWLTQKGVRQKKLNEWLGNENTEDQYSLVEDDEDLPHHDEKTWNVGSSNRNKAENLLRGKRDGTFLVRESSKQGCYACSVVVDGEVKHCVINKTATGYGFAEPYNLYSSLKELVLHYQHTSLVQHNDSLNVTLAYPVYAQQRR

For the molecule `Cc1nn(C(C)c2cc(Cl)c(C#N)c3c2OC(C)CN(CCO)C3)c2ncnc(N)c12` (single isomer, unassigned) [Example 64, 9-[1-(4-Amino-3-methyl-1H-pyrazolo[3,4-d]pyrimidin-1-yl)ethyl]-7-chloro-4-(2-hydroxyethyl)-2-methyl-2,3,4,5-tetrahydro-1,4-benzoxazepine-6-carbonitrile], the IC50 lay within 100 to 500 nM. As for `CC(=O)NC1CC(N2Cc3c(C#N)c(Cl)cc(C(C)n4nc(C)c5c(N)ncnc54)c3OC(C)C2)C1` (single isomer, unassigned) [Example 68, N-{3-[9-[1-(4-Amino-3-methyl-1H-pyrazolo[3,4-d]pyrimidin-1-yl)ethyl]-7-chloro-6-cyano-2-methyl-2,3-dihydro-1,4-benzoxazepin-4(5H)-yl]cyclobutyl}acetamide], the IC50 was no more than 100 nM.

In turn, `Cc1nn(C(C)c2cc(Cl)c(C#N)c3c2OC(C)CN(CC(N)=O)C3)c2ncnc(N)c12` (single isomer, unassigned) [Example 110, 2-[9-[1-(4-amino-3-methyl-1H-pyrazolo[3,4-d]pyrimidin-1-yl)ethyl]-7-chloro-6-cyano-2-methyl-2,3-dihydro-1,4-benzoxazepin-4(5H)-yl]acetamide] displayed an IC50 of no more than 100 nM.

In turn, `Cc1nn(C(C)c2cc(Cl)c(F)c3c2OC(C)CN(C2CN(C(=O)OC(C)(C)C)C2)C3)c2ncnc(N)c12` (single isomer, unassigned) [Example 26, tert-Butyl 3-[9-[1-(4-amino-3-methyl-1H-pyrazolo[3,4-d]pyrimidin-1-yl)ethyl]-7-chloro-6-fluoro-2-methyl-2,3-dihydro-1,4-benzoxazepin-4(5H)-yl]azetidine-1-carboxylate] yielded an IC50 of no more than 100 nM. Regarding `Cc1nn(C(C)c2cc(Cl)c(F)c3c2O[C@@H](C)CN(C2CC(C(N)=O)C2)C3)c2ncnc(N)c12` (single isomer, unassigned) [Example 44], the IC50 is no more than 100 nM. The molecule `Cc1nn(C(C)c2cc(Cl)c(C#N)c3c2OC(C)CN(C2CN(CCO)C2)C3)c2ncnc(N)c12` (single isomer, unassigned) [Example 104, 9-[1-(4-amino-3-methyl-1H-pyrazolo[3,4-d]pyrimidin-1-yl)ethyl]-7-chloro-4-[1-(2-hydroxyethyl)azetidin-3-yl]-2-methyl-2,3,4,5-tetrahydro-1,4-benzoxazepine-6-carbonitrile] returned an IC50 of no more than 100 nM. In the case of `Cc1nn(C(C)c2cc(Cl)c(C#N)c3c2OC(C)CN(CC(N)=O)C3)c2ncnc(N)c12` (single isomer, unassigned) [Example 109, 2-[9-[1-(4-amino-3-methyl-1H-pyrazolo[3,4-d]pyrimidin-1-yl)ethyl]-7-chloro-6-cyano-2-methyl-2,3-dihydro-1,4-benzoxazepin-4(5H)-yl]acetamide], the IC50 is no more than 100 nM. Consider `CC(=O)NC1CC(N2Cc3c(C#N)c(Cl)cc(C(C)n4nc(C)c5c(N)ncnc54)c3OC(C)C2)C1` (single isomer, unassigned) [Example 67, N-{3-[9-[1-(4-Amino-3-methyl-1H-pyrazolo[3,4-d]pyrimidin-1-yl)ethyl]-7-chloro-6-cyano-2-methyl-2,3-dihydro-1,4-benzoxazepin-4(5H)-yl]cyclobutyl}acetamide], for which the IC50 was no more than 100 nM. `Cc1nn(C(C)c2cc(Cl)c(C#N)c3c2OC(C)CN(C2CN(CC(C)(C)O)C2)C3)c2ncnc(N)c12` (single isomer, unassigned) [Example 55, 9-[1-(4-Amino-3-methyl-1H-pyrazolo[3,4-d]pyrimidin-1-yl)ethyl]-7-chloro-4-[1-(2-hydroxy-2-methylpropyl)azetidin-3-yl]-2-methyl-2,3,4,5-tetrahydro-1,4-benzoxazepine-6-carbonitrile]: the IC50 is no more than 100 nM. As for `Cc1nn(C(C)c2cc(Cl)c(F)c3c2OC(C)CN(S(C)(=O)=O)C3)c2ncnc(N)c12` (single isomer, unassigned) [Example 38, 1-{1-[7-Chloro-6-fluoro-2-methyl-4-(methylsulfonyl)-2,3,4,5-tetrahydro-1,4-benzoxazepin-9-yl]ethyl}-3-methyl-1H-pyrazolo[3,4-d]pyrimidin-4-amine], the figure is greater than 800 nM; as for `Cc1nn(C(C)c2cc(Cl)c(C#N)c3c2OC(C)CN(CC(C)(C)O)C3)c2ncnc(N)c12` (single isomer, unassigned) [Example 66, 9-[1-(4-Amino-3-methyl-1H-pyrazolo[3,4-d]pyrimidin-1-yl)ethyl]-7-chloro-4-(2-hydroxy-2-methylpropyl)-2-methyl-2,3,4,5-tetrahydro-1,4-benzoxazepine-6-carbonitrile], no more than 100 nM; as for `Cc1nn(C(C)c2cc(Cl)c(F)c3c2OC[C@H](C)N(S(C)(=O)=O)C3)c2ncnc(N)c12` (single isomer, unassigned) [Example 35], no more than 100 nM. With `COC(=O)N1CC(N2Cc3c(F)c(Cl)cc(C(C)n4nc(C)c5c(N)ncnc54)c3OC(C)C2)C1` (single isomer, unassigned) [Example 80, methyl 3-[9-[1-(4-amino-3-methyl-1H-pyrazolo[3,4-d]pyrimidin-1-yl)ethyl]-7-chloro-6-fluoro-2-methyl-2,3-dihydro-1,4-benzoxazepin-4(5H)-yl]azetidine-1-carboxylate], the IC50 is no more than 100 nM.

`Cc1nn(C(C)c2cc(Cl)c(F)c3c2O[C@@H](C)CN(C2CN(CC(N)=O)C2)C3)c2ncnc(N)c12` (single isomer, unassigned) [Example 88] yielded an IC50 of no more than 100 nM. As for `CC(=O)N1CC(N2Cc3c(F)c(Cl)cc(C(C)n4nc(C)c5c(N)ncnc54)c3OC(C)C2)C1` (single isomer, unassigned) [Example 31, 1-{1-[4-(1-Acetylazetidin-3-yl)-7-chloro-6-fluoro-2-methyl-2,3,4,5-tetrahydro-1,4-benzoxazepin-9-yl]ethyl}-3-methyl-1H-pyrazolo[3,4-d]pyrimidin-4-amine], the figure is greater than 800 nM; as for `Cc1nn(C(C)c2cc(Cl)c(F)c3c2OC[C@H](C)N(S(C)(=O)=O)C3)c2ncnc(N)c12` (single isomer, unassigned) [Example 36], 500 to 1000 nM; as for `Cc1nn(C(C)c2cc(Cl)c(C#N)c3c2OC(C)CN(C2CN(S(=O)(=O)N(C)C)C2)C3)c2ncnc(N)c12` (single isomer, unassigned) [Example 106, 3-[9-[1-(4-amino-3-methyl-1H-pyrazolo[3,4-d]pyrimidin-1-yl)ethyl]-7-chloro-6-cyano-2-methyl-2,3-dihydro-1,4-benzoxazepin-4(5H)-yl]-N,N-dimethylazetidine-1-sulfonamide], no more than 100 nM. `CC(=O)N1CC(N2Cc3c(F)c(Cl)cc(C(C)n4nc(C)c5c(N)ncnc54)c3OC(C)C2)C1` (single isomer, unassigned) [Example 33, 1-{1-[4-(1-Acetylazetidin-3-yl)-7-chloro-6-fluoro-2-methyl-2,3,4,5-tetrahydro-1,4-benzoxazepin-9-yl]ethyl}-3-methyl-1H-pyrazolo[3,4-d]pyrimidin-4-amine]: the IC50 lay in the range of 100 to 500 nM. In the case of `Cc1nn(C(C)c2cc(Cl)c(C#N)c3c2OC(C)CN(CCO)C3)c2ncnc(N)c12` (single isomer, unassigned) [Example 61, 9-[1-(4-Amino-3-methyl-1H-pyrazolo[3,4-d]pyrimidin-1-yl)ethyl]-7-chloro-4-(2-hydroxyethyl)-2-methyl-2,3,4,5-tetrahydro-1,4-benzoxazepine-6-carbonitrile] it was greater than 800 nM; in that of `COCCN1Cc2c(C#N)c(Cl)cc(C(C)n3nc(C)c4c(N)ncnc43)c2OC(C)C1` (single isomer, unassigned) [Example 111, 9-[1-(4-amino-3-methyl-1H-pyrazolo[3,4-d]pyrimidin-1-yl)ethyl]-7-chloro-4-(2-methoxyethyl)-2-methyl-2,3,4,5-tetrahydro-1,4-benzoxazepine-6-carbonitrile], no more than 100 nM. As for `Cc1nn(C(C)c2cc(Cl)c(C#N)c3c2OC(C)CN(C2CN(CC(N)=O)C2)C3)c2ncnc(N)c12` (single isomer, unassigned) [Example 53, 2-{3-[9-[1-(4-Amino-3-methyl-1H-pyrazolo[3,4-d]pyrimidin-1-yl)ethyl]-7-chloro-6-cyano-2-methyl-2,3-dihydro-1,4-benzoxazepin-4(5H)-yl]azetidin-1-yl}acetamide], the IC50 was no more than 100 nM. As for `Cc1nn(C(C)c2cc(Cl)c(F)c3c2OCCN(C2CN(C(=O)N(C)C)C2)C3)c2ncnc(N)c12` (stereo not shown) [Example 73, 3-[9-[1-(4-amino-3-methyl-1H-pyrazolo[3,4-d]pyrimidin-1-yl)ethyl]-7-chloro-6-fluoro-2,3-dihydro-1,4-benzoxazepin-4(5H)-yl]-N,N-dimethylazetidine-1-carboxamide], the figure is no more than 100 nM.
